Legend:
[1] = test system: MMR-His6; assay: Steady-state kinetics, ketoreductase activity by NADPH oxidation monitoring; format: biochemical, Mentha piperita; details: NADPH oxidation at 340 nm, 25° C., monoterpenoid 1 mM
Experimental: (§1) The concentration of nicotinamide coenzymes (Melford) was determined by the extinction coefficient method (ε340=[…]). Steady-state kinetic analyses were performed on a Cary UV-50 Bio UV/Vis scanning spectrophotometer using a quartz cuvette (1 mL; HelIma) with a 1 cm path length. Standard reactions (1 mL) were performed in buffer (50 mM Tris pH 7.0) containing NADPH (50-100 μM for MMR/MNMR and NtDBR, respectively), monoterpenoid (1 mM) and enzyme (30 nM to 2 μM). Reactions were followed by continuously monitoring NADPH oxidation at 340 nm for 1 min at 25° C. The standard monoterpenoid substrates used were pulegone for NtDBR (alkene reduction) and menthone/isomenthone for both MMR and MNMR (ketoreduction). Ketoreductase reactions were performed in an alternative buffer (12.5 mM tri-sodium citrate, 12.5 mM KH2PO4, 12.5 mM K2HPO4and 12.5 mM CHES) containing dithiothreitol (1 mM; DTT). All steady state reactions were performed in at least duplicate.
(§2) The cloning strategies enable the rapid generation and manipulation of multi-gene expression constructs from individual ‘components’, including the presence of repeated sequences of relatively high GC content. Initially, the three ‘mint’ pathway recombinant enzymes (NtDBR, MMR and MNMR) were purified, and preliminary biocatalytic ability of each was assessed to test their functionality when produced in a bacterial system. The three genes encoding these plant enzymes were first codon-optimised for E. coli and cloned into pET21b to generate C-His6-tagged recombinant enzymes. After production and purification, each enzyme was tested for activity under steady state conditions, via indirect NADPH oxidation monitoring.

[2] = test system: His6-MNMR-His6; assay: as above; format: biochemical, Mentha piperita; details: NADPH oxidation at 340 nm, 25° C., monoterpenoid 1 mM
Experimental: as §1, §2

[3] = test system: MMR; details: Davis et al. 2005; cited from earlier work
[4] = molecular target: T1, NtDBR-His6 (Nicotiana tabacum, UniProt Q9SLN8); assay: Steady-state kinetics, ene-reductase activity by NADPH oxidation monitoring; format: biochemical; details: NADPH oxidation at 340 nm, 25° C., monoterpenoid 1 mM, 50 mM Tris pH 7.0
T1 construct: made in house; host or cells: E. coli BL21(DE3)pLysS
T1 sequence (Q9SLN8 whole entry): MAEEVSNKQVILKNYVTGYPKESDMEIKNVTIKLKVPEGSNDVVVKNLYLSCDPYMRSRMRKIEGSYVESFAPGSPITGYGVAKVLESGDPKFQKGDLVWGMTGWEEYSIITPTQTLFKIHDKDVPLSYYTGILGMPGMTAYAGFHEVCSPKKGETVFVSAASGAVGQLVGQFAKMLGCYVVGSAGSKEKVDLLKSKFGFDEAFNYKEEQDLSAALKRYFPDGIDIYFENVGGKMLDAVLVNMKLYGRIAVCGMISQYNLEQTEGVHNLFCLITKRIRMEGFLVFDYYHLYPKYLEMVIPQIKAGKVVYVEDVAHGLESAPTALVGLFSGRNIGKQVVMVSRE
Experimental: as §1
The cloning strategies enable the rapid generation and manipulation of multi-gene expression constructs from individual ‘components’, including the presence of repeated sequences of relatively high GC content. Initially, the three ‘mint’ pathway recombinant enzymes (NtDBR, MMR and MNMR) were purified, and preliminary biocatalytic ability of each was assessed to test their functionality when produced in a bacterial system. […]

Ketoreductase activity [1] | Ketoreductase activity [2] | Compound | specificity for menthone over isomenthone [3] | ene-reductase activity [4]
2.00 s⁻¹ | 0.20 s⁻¹ | CC(C)[C@H]1CC[C@@H](C)CC1=O [(2R,5R)-isomenthone] |  | 
1.63 s⁻¹ | 0.96 s⁻¹ | CC(C)[C@@H]1CC[C@@H](C)CC1=O [(2S,5R)-menthone, (2S,5R)-trans-2-Isopropyl-5-methylcyclohexanone] | 10 fold | 
 |  | CC(C)=C1CC[C@@H](C)CC1=O [(5R)-pulegone] |  | < 0.1 s⁻¹

Reference: patent publication US20160289702A1, “Biosynthetic Mint” (The University of Manchester, priority 2015, published 2016)
